Test results published in patent US5688938A, “Calcium receptor-active molecules” (priority 1995, dated 1997).
Read-outs that look alike come from different tables or passages of the source.

What was measured:
[1] = molecular target: T1, C-cell calcium receptor (Rattus norvegicus, UniProt P48442); assay: cell-based; format: cell-based; conditions: for EC50: rMTC 6-23 cells
T1 construct: Neoplastic C-cells derived from a rat medullary thyroid carcinoma (rMTC 6-23) were obtained from American Type Culture Collection; host or cells: rMTC 6-23 cells
T1 sequence (P48442 20-1079): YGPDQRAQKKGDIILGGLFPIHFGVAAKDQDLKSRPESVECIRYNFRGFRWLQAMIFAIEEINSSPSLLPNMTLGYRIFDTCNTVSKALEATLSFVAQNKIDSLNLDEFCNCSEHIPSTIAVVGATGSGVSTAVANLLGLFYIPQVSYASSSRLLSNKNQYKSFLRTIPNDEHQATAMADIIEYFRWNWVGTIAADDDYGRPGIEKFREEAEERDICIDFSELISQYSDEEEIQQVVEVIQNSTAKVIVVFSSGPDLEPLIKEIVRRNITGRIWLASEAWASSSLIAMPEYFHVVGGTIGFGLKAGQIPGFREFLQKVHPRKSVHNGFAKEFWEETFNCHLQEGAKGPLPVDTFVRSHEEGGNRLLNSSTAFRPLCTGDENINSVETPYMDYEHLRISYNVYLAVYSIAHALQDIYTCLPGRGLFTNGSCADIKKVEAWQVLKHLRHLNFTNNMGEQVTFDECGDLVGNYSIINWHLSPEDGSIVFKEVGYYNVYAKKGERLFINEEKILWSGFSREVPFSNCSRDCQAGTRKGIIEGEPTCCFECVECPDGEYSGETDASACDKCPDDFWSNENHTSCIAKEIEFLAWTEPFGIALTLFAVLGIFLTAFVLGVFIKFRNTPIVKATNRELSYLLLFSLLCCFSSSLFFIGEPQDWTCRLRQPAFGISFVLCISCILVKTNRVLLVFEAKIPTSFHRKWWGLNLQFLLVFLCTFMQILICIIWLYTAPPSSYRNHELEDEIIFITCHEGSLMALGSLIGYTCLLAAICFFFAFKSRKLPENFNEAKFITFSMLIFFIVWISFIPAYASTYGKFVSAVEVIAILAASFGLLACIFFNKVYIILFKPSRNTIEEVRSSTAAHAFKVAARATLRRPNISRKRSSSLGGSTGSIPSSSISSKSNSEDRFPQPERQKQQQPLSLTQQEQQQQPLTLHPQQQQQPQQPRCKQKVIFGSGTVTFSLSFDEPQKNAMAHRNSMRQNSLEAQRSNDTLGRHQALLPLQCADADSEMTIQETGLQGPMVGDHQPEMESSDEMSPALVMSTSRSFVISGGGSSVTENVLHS
Excerpt: To assess the effects of molecular polycations on C-cells, a neoplastic cell line, derived from a rat medullary thyroid carcinoma (rMTC 6-23 cells) was used.

[2] = molecular target: T2, bovine parathyroid cell calcium receptor (Bos taurus, UniProt P35384); assay: Cl^- current in Xenopus oocytes expressing BoPCaR 1; format: cell-based
T2 construct: expressed in transfected cells; host or cells: Xenopus laevis oocytes injected with cRNA from BoPCaR 1
T2 sequence (P35384 21-1085 limits assumed): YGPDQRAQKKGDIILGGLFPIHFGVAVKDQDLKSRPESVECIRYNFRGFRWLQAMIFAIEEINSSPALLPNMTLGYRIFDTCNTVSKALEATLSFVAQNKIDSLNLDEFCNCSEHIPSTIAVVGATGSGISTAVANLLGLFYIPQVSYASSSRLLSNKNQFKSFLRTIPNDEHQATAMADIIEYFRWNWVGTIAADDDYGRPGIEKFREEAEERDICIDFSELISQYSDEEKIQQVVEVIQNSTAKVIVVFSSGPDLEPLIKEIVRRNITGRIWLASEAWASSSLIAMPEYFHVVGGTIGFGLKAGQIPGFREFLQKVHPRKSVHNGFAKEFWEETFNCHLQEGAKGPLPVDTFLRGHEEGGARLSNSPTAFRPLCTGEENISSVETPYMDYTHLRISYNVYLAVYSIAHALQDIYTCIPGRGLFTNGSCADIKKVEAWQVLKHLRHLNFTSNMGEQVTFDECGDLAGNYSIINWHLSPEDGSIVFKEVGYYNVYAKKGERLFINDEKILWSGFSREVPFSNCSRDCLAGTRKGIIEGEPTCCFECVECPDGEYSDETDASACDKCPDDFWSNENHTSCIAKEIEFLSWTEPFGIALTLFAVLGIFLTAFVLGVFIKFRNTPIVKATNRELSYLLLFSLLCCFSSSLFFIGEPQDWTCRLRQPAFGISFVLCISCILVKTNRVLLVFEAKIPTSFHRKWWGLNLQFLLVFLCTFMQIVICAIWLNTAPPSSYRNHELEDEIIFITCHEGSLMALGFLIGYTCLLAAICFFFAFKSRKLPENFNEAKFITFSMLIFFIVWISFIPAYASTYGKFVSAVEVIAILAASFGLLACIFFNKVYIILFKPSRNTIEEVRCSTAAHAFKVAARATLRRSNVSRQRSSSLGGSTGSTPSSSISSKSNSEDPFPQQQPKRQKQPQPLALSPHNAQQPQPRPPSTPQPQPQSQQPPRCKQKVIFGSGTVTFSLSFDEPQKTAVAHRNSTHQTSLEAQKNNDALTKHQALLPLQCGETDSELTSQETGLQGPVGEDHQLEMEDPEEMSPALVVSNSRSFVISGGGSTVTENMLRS
Method: These responses are mediated by the following series of biochemical events:
Xenopus oocytes were injected with BoPCaR 1, the 5.3 Kb cDNA encoding a bovine parathyroid cell calcium receptor as described in Example 25. After two to three days, Cl^- currents were examined in the oocytes using a two-electrode voltage clamp.
Xenopus oocytes were injected with BoPCaR 1 as described in Example 25. After two to three days, Cl^- currents were examined in the oocytes using two electrode voltage clamp.

Row | SMILES | transient increase in [Ca^2+]i in C-cells ([1]; 10 μM, 0.5 mM [Ca^2+]) | EC50 ([1]; Table 6, read-out: EC50 C-CELL) [µM] | EC50 ([1]; read-out: EC50 for mobilizing intracellular Ca^2+ in C-cells) [µM] | Cl^- current response in absence of extracellular Ca^2+ [2] | Cl^- current ([2]; 1 mM extracellular Ca^2+) | effect on concentration-response curve of NPS 019 [2] | effect on responses to submaximal extracellular Ca^2+ [2] | effect on basal [Ca^2+]i in C-cells [1] | inward currents ([2]; Ca^2+ 5 mM, Mg^2+ 1.0-20 mM, Gd^3+ 600 μM, neomycin 200 μM)
1 | NCCCNCCCCNCCCNCCCNCCCNC(=O)Cc1c[nH]c2ccccc12 [NPS 019, reference compound] | refractory to inhibition by La^3+ | 5 | 5 | persisted | oscillatory increases in the Cl^- current |  |  |  | 
2 | COc1cccc([C@@H](C)NCCCc2ccccc2Cl)c1 [NPS R-568, (R)-(+)-N-[3-(2-chlorophenyl)propyl]-α-methyl-3-methoxybenzylamine] |  |  |  | abolished |  | shifts the concentration-response curve of NPS 019 to the left | potentiated the responses |  | 
3 | NC[C@@H]1O[C@H](O[C@H]2[C@@H](O)[C@H](O[C@@H]3[C@@H](O)[C@H](N)C[C@H](N)[C@H]3O[C@H]3O[C@H](CN)[C@@H](O)[C@H](O)[C@H]3N)O[C@@H]2CO)[C@H](N)[C@@H](O)[C@@H]1O [Neomycin] |  |  |  |  |  |  |  | without effect on basal [Ca^2+ ]i | large inward currents
